Source: the supplement of paper PMC10307832

How the values were obtained:
Experiment in all cases: relative viability (nuclei count vs DMSO), 5 days (fraction); higher = more cells survive
Gemcitabine + OSI-027 = compound: Nc1ccn([C@@H]2O[C@H](CO)[C@@H](O)C2(F)F)c(=O)n1 [Gemcitabine] + COc1cccc2cc(-c3nc([C@H]4CC[C@H](C(=O)O)CC4)n4ncnc(N)c34)[nH]c12 [OSI-027] (partner 0.5 µM)
Outline: (§1)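 Five library-drug doses in √10 steps were combined with a fixed anchor-drug dose, or a single drug was given alone, by pin tool to lung cancer cell lines in 1536-well plates the day after seeding. Nuclei were stained and counted after 5 days. Relative viability is the nuclei count in treated wells over that in vehicle wells, taken as the median of duplicate plates.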

Gemcitabine + Luminespib = compound: Nc1ccn([C@@H]2O[C@H](CO)[C@@H](O)C2(F)F)c(=O)n1 [Gemcitabine] + CCNC(=O)c1noc(-c2cc(C(C)C)c(O)cc2O)c1-c1ccc(CN2CCOCC2)cc1 [Luminespib] (partner 0.01 µM)
Outline: as §1

Gemcitabine + Lapatinib = compound: Nc1ccn([C@@H]2O[C@H](CO)[C@@H](O)C2(F)F)c(=O)n1 [Gemcitabine] + CS(=O)(=O)CCNCc1ccc(-c2ccc3ncnc(Nc4ccc(OCc5cccc(F)c5)c(Cl)c4)c3c2)o1 [Lapatinib] (partner 2 µM)
Outline: as §1

Gemcitabine + Linsitinib = compound: Nc1ccn([C@@H]2O[C@H](CO)[C@@H](O)C2(F)F)c(=O)n1 [Gemcitabine] + C[C@]1(O)C[C@@H](c2nc(-c3ccc4ccc(-c5ccccc5)nc4c3)c3c(N)nccn32)C1 [Linsitinib] (partner 1 µM)
Outline: as §1

| Cell Line | relative viability (Gemcitabine + OSI-027; first compound 0.001 µM) | relative viability (Gemcitabine + OSI-027; first compound 0.003162 µM) | relative viability (Gemcitabine + OSI-027; first compound 0.01 µM) | relative viability (Gemcitabine + OSI-027; first compound 0.03162 µM) | relative viability (Gemcitabine + OSI-027; first compound 0.1 µM) | relative viability (Gemcitabine + Luminespib; first compound 0.001 µM) | relative viability (Gemcitabine + Luminespib; first compound 0.003162 µM) | relative viability (Gemcitabine + Luminespib; first compound 0.01 µM) | relative viability (Gemcitabine + Luminespib; first compound 0.03162 µM) | relative viability (Gemcitabine + Luminespib; first compound 0.1 µM) | relative viability (Gemcitabine + Lapatinib; first compound 0.001 µM) | relative viability (Gemcitabine + Lapatinib; first compound 0.003162 µM) | relative viability (Gemcitabine + Lapatinib; first compound 0.01 µM) | relative viability (Gemcitabine + Lapatinib; first compound 0.03162 µM) | relative viability (Gemcitabine + Lapatinib; first compound 0.1 µM) | relative viability (Gemcitabine + Linsitinib; first compound 0.001 µM) | relative viability (Gemcitabine + Linsitinib; first compound 0.003162 µM) | relative viability (Gemcitabine + Linsitinib; first compound 0.01 µM) | relative viability (Gemcitabine + Linsitinib; first compound 0.03162 µM) | relative viability (Gemcitabine + Linsitinib; first compound 0.1 µM) |
| --- | --- | --- | --- | --- | --- | --- | --- | --- | --- | --- | --- | --- | --- | --- | --- | --- | --- | --- | --- | --- |
| NCI-H1651 | 0.607 | 0.75 | 0.557 | 0.248 | 0.117 | 0.906 | 0.893 | 0.731 | 0.278 | 0.134 | 0.863 | 1 | 0.678 | 0.165 | 0.0838 | 0.884 | 1.04 | 0.69 | 0.211 | 0.0842 |
| NCI-H1792 | 0.639 | 0.486 | 0.285 | 0.227 | 0.154 | 0.382 | 0.286 | 0.233 | 0.206 | 0.167 | 0.948 | 0.806 | 0.239 | 0.107 | 0.0773 | 0.561 | 0.363 | 0.131 | 0.109 | 0.0721 |
| NCI-H2023 | 0.417 | 0.342 | 0.128 | 0.0817 | 0.0589 | 0.96 | 0.755 | 0.623 | 0.141 | 0.0596 | 1.04 | 0.99 | 0.424 | 0.127 | 0.0738 | 0.8 | 0.631 | 0.478 | 0.0945 | 0.0741 |
| COR-L 105 | 0.763 | 0.72 | 0.311 | 0.295 | 0.226 | 0.886 | 0.793 | 0.571 | 0.275 | 0.188 | 0.362 | 0.355 | 0.314 | 0.302 | 0.269 | 0.88 | 0.734 | 0.6 | 0.278 | 0.269 |
| NCI-H1734 | 0.506 | 0.343 | 0.166 | 0.121 | 0.111 | 0.159 | 0.157 | 0.119 | 0.136 | 0.119 | 0.985 | 0.97 | 0.421 | 0.165 | 0.0939 | 0.909 | 0.806 | 0.457 | 0.129 | 0.13 |
| NCI-H3122 | 1.05 | 0.918 | 0.246 | 0.133 | 0.112 | 0.1 | 0.0845 | 0.0643 | 0.0629 | 0.0705 | 1.02 | 1.04 | 0.926 | 0.476 | 0.243 | 1.04 | 0.957 | 0.892 | 0.262 | 0.174 |
| CAL-12T | 0.645 | 0.47 | 0.451 | 0.152 | 0.13 | 0.87 | 0.238 | 0.245 | 0.236 | 0.173 | 0.786 | 0.65 | 0.396 | 0.264 | 0.181 | 0.777 | 0.859 | 0.567 | 0.256 | 0.169 |
| NCI-H2085 | 0.896 | 0.75 | 0.479 | 0.414 | 0.189 | 0.435 | 0.477 | 0.369 | 0.298 | 0.263 | 0.811 | 0.811 | 0.668 | 0.434 | 0.302 | 0.795 | 0.967 | 0.705 | 0.57 | 0.404 |
